Measured values as given in publication PMC7998250, “Temperate Zone Plant Natural Products—A Novel Resource for Activity against Tropical Parasitic Diseases” (Pharmaceuticals, 2021).
Like-named read-outs stand apart in the source and are kept apart here.

Experiments:
[1] = tested on: L. mexicana axenic amastigotes; assay: Initial screen, L. mexicana axenic amastigotes, Alamar Blue; type: cell-based, Leishmania mexicana; conditions: for initial hit against L. mexicana: growth inhibited by ≥80%; for activity at 2 µM / inhibition of growth at 2 µM: Leishmania mexicana; for inhibition of growth at 2 µM: read-out: initial hit L.m
How it was run: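 Purified temperate plant natural products from a commercial library (1 mg/mL in DMSO) were tested against Leishmania mexicana axenic amastigotes at a final 2 μM. Parasites were seeded at 1 × 10^6 cells/mL in 96-well plates containing 200 μL culture and incubated 72 h. Growth was measured by Alamar Blue and normalised to DMSO controls (1% v/v), with triplicates over two biological replicates (n = 6).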

[2] = Cytotoxicity CC50, differentiated THP-1, Alamar Blue; type: cell-based, human; conditions: human
Text: The four lanosterone-like sterols derived from the Noble Fir Abies procera (700022, 700107, 700136) and the Grand Fir Abies grandis (700240) were the only initial compounds taken forward for L. mexicana due to their nanomolar activity and apparent low cytotoxicity (Figure 3a). […] Understanding the impact of the ring-opened lactone head group in this compound compared to the other three warrants further analysis in exploring their structure-activity relationships. These four sterols were also tested for growth inhibitory activity against L. donovani axenic amastigotes. […] As Leishmania spp. amastigotes typically reside with macrophages, further cytotoxicity assays with these sterols were performed against an activated monocyte cell line (THP-1) (Figure 4b). […]

in vitro = conditions: human
How it was run: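 Human hepatoma cells seeded at 1 × 10^5 cells/mL with two-fold serial compound dilutions, incubated 48 h at 37 °C, 5% CO2 in DMEM/10% FBS. Viability read by Alamar Blue. CC50 estimated from viability normalised to untreated controls versus log concentration.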

[3] = read-out: % growth L. mexicana, mean % growth compared to a normalised control with same concentration of DMSO solvent, initial screen
[4] = read-out: mean % growth, L. mexicana, initial screen, compared to a normalised control with same concentration of DMSO solvent
[5] = differentiated THP-1, 48 h, read-out: THP1 CC50

With CC1=CC(O)(CC(C)C2(C)CC=C3C4=CCC5C(C)(C)C(O)CCC5(C)C4CCC32C)OC1=O (stereo not drawn) [Compound 700022] the “initial hit against L. mexicana” value ([1]; 2 μM) was “initial hits”, the activity at 2 µM [1, 3] was 0.54% and the inhibition of growth at 2 µM ([1]; 2 μM, x = initial hit) was greater than 80%. For the same compound, the CC50 at 48 h ([2]; THP1 CC50) was 17 µM and the CC50 at 48 h (in vitro; pH 7, HepG2 CC50) was 28 µM.

With CC1OC(OC2C(OC(=O)C3CC[C@@H]4[C@H](C3)OC3(CC(OC(=O)/C=C/c5ccccc5)[C@@H](C)CO3)C43CO3)OC(CO)C(O)C2O)C(O)C(O)C1O (stereo partly drawn) [Compound 700042] the activity at 2 µM [1, 3] was 79.1% and the CC50 at 48 h (in vitro; pH 7, HepG2 CC50, 48 h) was 2.5 µM.

With CC1=CC(O)(CC(C)C2(C)CCC3C4=CCC5C(C)(CCC(O)C5(C)C)C4=CCC32C)OC1=O (stereo not drawn) [Compound 700107] the “initial hit against L. mexicana” value ([1]; 2 μM) was “initial hits”, the activity at 2 µM [1, 3] was 8.1% and the inhibition of growth at 2 µM ([1]; 2 μM, x = initial hit) was greater than 80%. The CC50 at 48 h ([2]; THP1 CC50) was 27 µM and the CC50 at 48 h (in vitro; pH 7, HepG2 CC50) was 45 µM.

For CC1=CC(O)(CC(C)C2(C)CC=C3C4=CCC5C(C)(C)C(=O)CCC5(C)C4CCC32C)OC1=O (stereo not drawn) [Compound 700136], the “initial hit against L. mexicana” value ([1]; 2 μM) was “initial hits”, the activity at 2 µM [1, 3] was -0.4% and the inhibition of growth at 2 µM ([1]; 2 μM, x = initial hit) was greater than 80%. The CC50 at 48 h ([2]; THP1 CC50) was 17 µM and the CC50 at 48 h (in vitro; pH 7, HepG2 CC50) was 28 µM.

For C/C(=C/C(=O)CC(C)C1CCC2(C)C3=CCC4C(C)(C)C(=O)CCC4(C)C3CCC12C)C(=O)O (stereo not drawn) [Compound 700240], the “initial hit against L. mexicana” value ([1]; 2 μM) was “initial hits”, the activity at 2 µM [1, 3] was -10.1% and the inhibition of growth at 2 µM ([1]; 2 μM, x = initial hit) was greater than 80%. For the same compound, the CC50 at 48 h ([2]; THP-1 cells differentiated into macrophages with PMA, differentiated THP-1, 48 h, read-out: THP1 CC50) was 13.5 µM and the CC50 at 48 h (in vitro; pH 7, HepG2 CC50) was 47 µM.

With C=C1C(=O)OC2CC(C)C3C=CC(=O)C3(C)C(OC(C)=O)C12 (stereo not drawn) [Compound 701155] the “initial hit against L. mexicana” value ([1]; 2 μM) was “initial hits” and the “mean % growth, L. mexicana” value ([1]; initial screen, compared to a normalised control with same concentration of DMSO solvent) was -0.28%.

In the case of C=C1C(=O)OC2CC(C)C3C=CC(=O)C3(C)C(OC(=O)C(C)C)C12 (stereo not drawn) [Compound 701157], the “initial hit against L. mexicana” value ([1]; 2 μM) is reported as “initial hits”, the inhibition of growth at 2 µM [1] is reported as greater than 80% and the activity at 2 µM [1, 4] is reported as 0.07%. For the same compound, the CC50 at 48 h [2, 5] was 0.73 µM and the CC50 at 48 h (in vitro; pH 7, HepG2 CC50, 48 h) was 1.3 µM.

With C=C1C(=O)OC2CC(C)C3C=CC(=O)C3(C)C(OC(=O)C(C)CC)C12 (stereo not drawn) [Compound 701158] the “initial hit against L. mexicana” value ([1]; 2 μM) was “initial hits”, the inhibition of growth at 2 µM [1] was greater than 80% and the activity at 2 µM [1, 4] was -1.7%. The CC50 at 48 h [2, 5] was 0.29 µM and the CC50 at 48 h (in vitro; pH 7, HepG2 CC50, 48 h) was 0.8 µM.

In the case of C=C1C(=O)OC2CC(C)C3C(OC)CC(=O)C3(C)C(OC(=O)C(C)CC)C12 (stereo not drawn) [Compound 701159], the “initial hit against L. mexicana” value ([1]; 2 μM) is reported as “initial hits”, the activity at 2 µM [1, 4] is reported as 1.5% and the inhibition of growth at 2 µM ([1]; 2 μM, x = initial hit) is reported as greater than 80%. It also gave a CC50 at 48 h [2, 5] of 1.42 µM and a CC50 at 48 h (in vitro; pH 7, HepG2 CC50, 48 h) of 3.4 µM.
